Results from the supplement of paper PMC10307832.

Experiments:
Assay in all cases: relative viability (nuclei count vs DMSO), 5 days (fraction); higher = more cells survive
IU1-47 + Dasatinib = compound: CC1=CC(=C(N1C2=CC=C(C=C2)Cl)C)C(=O)CN3CCCCC3 [IU1-47] + Cc1nc(Nc2ncc(C(=O)Nc3c(C)cccc3Cl)s2)cc(N2CCN(CCO)CC2)n1 [Dasatinib] (partner 0.075 µM)
Summary of the method: (§1)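 Lung cancer cell lines in 1536-well plates got either a single drug or a fixed anchor-drug dose together with five library-drug doses (not always all listed) in √10 steps, by pin tool, on the day after seeding. Nuclei were counted after 5 days, and relative viability is the treated-to-vehicle ratio of nuclei counts. Values are medians of duplicate plates.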

FG-4592 + Trametinib = compound: Cc1nc(C(=O)NCC(=O)O)c(O)c2ccc(Oc3ccccc3)cc12 [FG-4592] + CC(=O)Nc1cccc(-n2c(=O)n(C3CC3)c(=O)c3c(Nc4ccc(I)cc4F)n(C)c(=O)c(C)c32)c1 [Trametinib] (partner 0.02 µM)
Summary of the method: as §1

FG-4592 + Foretinib = compound: Cc1nc(C(=O)NCC(=O)O)c(O)c2ccc(Oc3ccccc3)cc12 [FG-4592] + COc1cc2c(Oc3ccc(NC(=O)C4(C(=O)Nc5ccc(F)cc5)CC4)cc3F)ccnc2cc1OCCCN1CCOCC1 [Foretinib] (partner 0.25 µM)
Summary of the method: as §1

FG-4592 + Pictilisib = compound: Cc1nc(C(=O)NCC(=O)O)c(O)c2ccc(Oc3ccccc3)cc12 [FG-4592] + CS(=O)(=O)N1CCN(Cc2cc3nc(-c4cccc5[nH]ncc45)nc(N4CCOCC4)c3s2)CC1 [Pictilisib] (partner 1 µM)
Summary of the method: as §1

Cell Line | relative viability (IU1-47 + Dasatinib; first compound 0.08 µM) | relative viability (IU1-47 + Dasatinib; first compound 0.253 µM) | relative viability (IU1-47 + Dasatinib; first compound 0.8 µM) | relative viability (IU1-47 + Dasatinib; first compound 2.53 µM) | relative viability (IU1-47 + Dasatinib; first compound 8 µM) | relative viability (FG-4592 + Trametinib; first compound 0.08 µM) | relative viability (FG-4592 + Trametinib; first compound 0.253 µM) | relative viability (FG-4592 + Trametinib; first compound 2.53 µM) | relative viability (FG-4592 + Trametinib; first compound 8 µM) | relative viability (FG-4592 + Foretinib; first compound 0.08 µM) | relative viability (FG-4592 + Foretinib; first compound 0.253 µM) | relative viability (FG-4592 + Foretinib; first compound 0.8 µM) | relative viability (FG-4592 + Foretinib; first compound 2.53 µM) | relative viability (FG-4592 + Foretinib; first compound 8 µM) | relative viability (FG-4592 + Pictilisib; first compound 0.08 µM) | relative viability (FG-4592 + Pictilisib; first compound 0.253 µM) | relative viability (FG-4592 + Pictilisib; first compound 0.8 µM) | relative viability (FG-4592 + Pictilisib; first compound 2.53 µM) | relative viability (FG-4592 + Pictilisib; first compound 8 µM) | relative viability (FG-4592 + Trametinib; first compound 0.8 µM)
EMC-BAC-2 | 0.373 | 0.336 | 0.356 | 0.324 | 0.326 | 0.939 | 0.892 | 0.845 | 0.88 | 0.997 | 0.995 | 1.01 | 1.06 | 0.977 | 0.439 | 0.476 | 0.396 | 0.564 | 0.445 | 
NCI-H2405 | 0.21 | 0.234 | 0.208 | 0.206 | 0.208 | 0.548 | 0.57 | 0.587 | 0.411 | 0.962 |  | 1.03 | 1.02 | 1.14 |  | 0.266 | 0.348 | 0.419 | 0.427 | 0.507
NCI-H358 | 0.147 | 0.142 | 0.156 | 0.168 | 0.211 | 0.138 | 0.135 | 0.16 | 0.124 | 0.732 | 0.632 | 0.85 | 0.535 | 0.632 | 0.323 | 0.344 | 0.289 | 0.292 | 0.326 | 0.122
NCI-H1944 | 0.213 | 0.214 | 0.204 | 0.2 | 0.203 | 0.426 | 0.409 | 0.422 | 0.371 | 0.928 | 0.816 | 0.941 | 0.85 | 0.934 | 0.3 | 0.336 | 0.294 | 0.356 | 0.363 | 0.464
EPLC-272H | 0.371 | 0.459 | 0.322 |  | 0.35 | 0.288 | 0.232 | 0.303 | 0.308 | 0.755 | 0.738 | 0.521 | 0.706 | 0.641 | 0.276 | 0.26 | 0.28 | 0.37 | 0.434 | 0.234
NCI-H1915 | 0.318 | 0.3 | 0.334 |  | 0.306 | 0.304 | 0.266 | 0.287 | 0.258 | 1.09 | 1.06 | 1.22 | 1.12 | 1 | 0.913 | 0.915 | 0.873 | 0.93 | 0.95 | 0.274
NCI-H596 | 0.574 | 0.617 | 0.606 | 0.595 | 0.554 | 0.861 | 0.804 | 0.842 | 0.564 | 0.814 | 0.617 | 0.764 | 0.867 | 0.465 | 0.337 | 0.359 |  | 0.377 | 0.433 | 
NCI-H322M | 0.251 | 0.251 | 0.257 | 0.265 | 0.238 |  | 0.482 | 0.497 | 0.438 | 0.87 | 0.937 | 0.903 | 0.975 | 0.91 | 0.379 | 0.481 | 0.481 | 0.512 | 0.583 | 0.475
